Reference: patent publication US20140341939A1 (NATIONAL UNIVERSITY CORPORATION KOCHI UNIVERSITY, priority 2011, published 2014)
“Also recorded” adds a separate entry of the source. One block for each molecule: values may come before it. Where no end group is shown, it is not given here. [ ]: non-standard residue; d: D form. The star is where a group is joined. Biotin = O=C1N[C@H]2[C@H](CS[C@H]2CCCCC(=O)*)N1; βAla = NCCC(=O)O

Legend:
[1] = tested on: peptidase activity in the serum; assay: Effect of peptidase inhibitor on OVII peptide digestion by mouse serum; assay type: biochemical; conditions: inhibitor-containing buffer (FIGS. 22-24)
Source text: Given the above-mentioned Examples, the inventor examined the effect of peptidase inhibitor on the peptide digestion to identify the peptidase in the serum.

ACE = biological target: T1, ACE (Mus musculus, UniProt P09470); assay: ACE activity of antigen presenting cell (CH1-IA^d cells, Abz-FRK(Dnp)P-OH substrate); assay type: cell-based; conditions: 2.5 mM inhibitor, preincubated 37° C. 20 min; 10 μM Abz-FRK(Dnp)P-OH (FIG. 25)
T1 construct: endogenous in cells; host or cells: CH1-IA^d cells (living, in PBS)
T1 sequence (P09470 35-1312): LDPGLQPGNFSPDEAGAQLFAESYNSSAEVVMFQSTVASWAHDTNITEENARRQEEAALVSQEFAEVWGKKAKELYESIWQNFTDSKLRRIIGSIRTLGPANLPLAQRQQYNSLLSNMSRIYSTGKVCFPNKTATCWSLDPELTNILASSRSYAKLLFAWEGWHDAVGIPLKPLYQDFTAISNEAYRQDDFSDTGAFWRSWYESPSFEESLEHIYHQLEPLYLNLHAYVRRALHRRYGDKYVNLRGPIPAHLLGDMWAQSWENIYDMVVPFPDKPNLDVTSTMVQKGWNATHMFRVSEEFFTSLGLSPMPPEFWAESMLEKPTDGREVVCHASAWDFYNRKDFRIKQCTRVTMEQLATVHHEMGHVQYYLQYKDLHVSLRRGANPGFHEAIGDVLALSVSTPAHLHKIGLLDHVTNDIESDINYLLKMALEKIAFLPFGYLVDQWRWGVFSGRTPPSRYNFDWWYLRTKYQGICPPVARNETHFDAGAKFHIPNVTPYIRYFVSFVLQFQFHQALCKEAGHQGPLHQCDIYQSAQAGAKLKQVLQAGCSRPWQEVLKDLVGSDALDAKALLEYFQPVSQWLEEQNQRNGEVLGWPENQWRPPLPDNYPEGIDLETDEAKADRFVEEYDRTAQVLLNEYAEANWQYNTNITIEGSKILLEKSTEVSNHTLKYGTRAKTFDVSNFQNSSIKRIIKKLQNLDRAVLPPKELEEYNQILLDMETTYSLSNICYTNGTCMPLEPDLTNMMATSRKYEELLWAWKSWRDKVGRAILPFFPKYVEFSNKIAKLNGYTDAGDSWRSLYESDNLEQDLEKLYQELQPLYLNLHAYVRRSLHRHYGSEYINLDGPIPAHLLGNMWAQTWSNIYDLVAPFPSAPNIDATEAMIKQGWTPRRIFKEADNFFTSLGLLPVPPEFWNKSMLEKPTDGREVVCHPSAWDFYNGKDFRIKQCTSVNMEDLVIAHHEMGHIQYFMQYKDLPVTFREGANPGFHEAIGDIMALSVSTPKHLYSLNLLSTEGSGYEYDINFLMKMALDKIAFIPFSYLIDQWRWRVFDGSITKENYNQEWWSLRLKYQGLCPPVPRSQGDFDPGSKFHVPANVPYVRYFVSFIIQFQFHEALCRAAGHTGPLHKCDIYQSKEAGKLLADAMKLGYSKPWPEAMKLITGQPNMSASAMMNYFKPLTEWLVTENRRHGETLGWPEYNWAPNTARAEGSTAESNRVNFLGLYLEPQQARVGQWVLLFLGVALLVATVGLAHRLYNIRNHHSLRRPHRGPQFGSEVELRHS
Method: The ACE activity of the cell surface was measured by a modified method of the method described in Sabatini, R. et al., Anal Biochem 363: 255-262, 2007.
10 μM Abz-FRK(Dnp)P-OH (Sigma, St. Louis) was added and the cells were incubated at 37° C. for a given time. The reaction was quenched by placing them on ice. After centrifugation, fluorescence in the supernatant was measured at excitation wavelength of 320 nm and emission wavelength of 420 nm (FIG. 25).

serum peptidase [2] = tested on: serum peptidase
Method: (§1) Peptide was digested in TBS containing 10% fresh mouse serum or fresh human serum. After incubation at 37° C. for a given time, 1% trifluoro acid was added to remove various serum proteins by precipitation. After short centrifugation, the soluble fraction was analyzed by reversed-phase HPLC using a C18 analysis column. To normalize variation in the total amount of the peptide loaded for each HPLC, the peak of non-protein components contained in the serum, which is absorbed at the wavelength of 220 nm, was used as an internal control. The peak area of undigested peptides was quantitatively monitored by Chromatopac C-R8A (Shimadzu Corp., Kyoto, Japan), and the amount of the remaining peptide was calculated.
(§2) Therefore, the inventor examined the digestion resistance of peptide in vitro in a 10% fresh mouse serum. The amount of a remaining undigested peptide was quantified by HPLC.

in vitro = conditions: mouse, serum
Method: as §1, §2

EG7 tumor = assay: Antitumor activity by in vivo immunization with OVA-derived peptides (EL4 / EG7 tumor); conditions: CBF1 mouse, peptide-loaded LPS blast i.p. 3 times; EL4 / EG7 tumor (FIG. 8)
Source text: CBF1 mouse was immunized with LPS blast of splenocyte pulsed with either λ repressor peptide ([…]; SEQ ID NO: 39) or OVAII peptide as a Th epitope peptide, and K^b-binding OVA-I peptide, which is a CTL inducing peptide. LPS blast derived from one spleen was pulsed with peptide, and intraperitoneally injected to immunize two mice. The next day of the third immunization, 9×10^6 EL4 cells and 1.2×10^7 EG7 cells were intradermally transplanted in a pair on the back skin of the mice. The tumor size was measured every other day. Immunization was performed once again 2 weeks from the tumor transplantation.
To verify the anti-tumor effect of inducing tumor-specific Th cells in vivo, the inventor compared the immunization protocol that induces 1. CTL alone, 2. CTL and a third party antigen-specific Th cell, and 3. CTL and tumor-specific Th cell. As the antigen presenting cell, LPS blast of spleen cell was used, and the APC loaded with each peptide alone or the mixture of each peptide was injected intraperitoneally 3 times (once per week). On the day of third immunization, 9×10^6 EL4 and 1.2×10^7 EG7 tumor were innoculated on the opposite sides of the back, and the tumor diameter was measured from day 4.

DO11.10 cells [3] = assay: Antigen presentation by F2-IA^d vascular endothelial cells (CD69 expression by DO11.10 cells); assay type: cell-based, mouse
Method: EL4 cells were first opsonized with RGD peptide. Next, 5 mg/ml OVA protein was loaded on the cytoplasm by osmotic pressure loading. After sufficient washing, 2×10^6 EL4 cells were added to a confluent culture medium of F2-IA^d cells on a 24-well plate (cultured for 2 days in advance in the presence of 500 U/ml rmIFN-γ). As a control, EL4 and EG7 mock-loaded with PBS were RGD-modified in the same manner and used. EL4 and other target cells were added to F2-IA^d, and the cell mixture was cultured for 24 hr. As for the control well wherein F2-IA^d cells were directly loaded with OVAII peptide, the cells were pulsed with peptide for 2 hr at the end of the culture. After removing the non-adherent cells and debris of dead cells, the surface of the adhered F2-IA^d cells was sufficiently washed. In an antigen presentation inhibitory experiment using chloroquine, 100 μM chloroquine was added 30 min before addition of EL4, EL4 loaded with OVA or 0.25 mg/ml OVA protein. Furthermore, F2-IA^d cells were cultured for 3 days in the continuous presence of chloroquine.
Whether the F2-IA^d cells presented the target antigen polypeptide on the cell surface was evaluated by monitoring the expression of CD69 by DO11.10 cells. The antigen-presenting F2-IA^d cells and DO11.10 cells were mixed and centrifuged to contact the cells with one another. After 6 hr and 24 hr, the cells were stained with biotin-labeled anti CD69 mAb (H1.2F3, BD Biosciences), and the expression of CD69 by DO11.10 cells was detected by flow cytometry (stained positive with FITC-labeled KJ1.26 (anti clonotypic TCR mAb)).

DO11.10 cells [4] = assay: Cell migration test through F2-IA^d cell layer (Transwell); assay type: cell-based, mouse
Method: F2-IA^d cells were cultured until confluence on an insert of Transwell plate (BD Labware, Billerica, Calif.). The cells were cultured in the presence of 500 U/ml rmIFN-γ for the last 3 days of culture. In addition, F2-IA^d cells were pulsed with various concentrations of OVAII peptide for the last 2 hr of culture. After the culture, F2-IA^d cells were washed and CD4^+ cells were isolated by negative selection (Dynal mouse CD4 negative isolation kit (Invitrogen)) from DO11.10 transgenic spleen cells to not less than 95% purity, which were added by 4×10^6 cells per well. The cells were incubated at 37° C., and the number of DO11.10 that migrated under the chamber in 6 hr was counted.

I-A^d molecule = biological target: T2, I-A^d molecule (Mus musculus, UniProt P01921+P04228); assay: Peptide-binding assay on CH1-IA^d cells (FITC-streptavidin, flow cytometry); conditions: CH1-IA^d cells (FIG. 17)
T2 construct: expressed in transfected cells; host or cells: CH1 cells, retroviral transduction with pMX (I-Aβ-IRES-I-Aα)
T2 sequence (P04228 24-256): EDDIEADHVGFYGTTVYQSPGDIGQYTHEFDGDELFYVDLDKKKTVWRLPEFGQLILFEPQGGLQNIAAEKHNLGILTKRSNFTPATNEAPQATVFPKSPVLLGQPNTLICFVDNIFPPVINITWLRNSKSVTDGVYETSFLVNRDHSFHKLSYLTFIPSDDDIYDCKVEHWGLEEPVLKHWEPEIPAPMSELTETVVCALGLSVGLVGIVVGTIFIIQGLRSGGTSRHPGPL
T2 sequence (P01921 28-265): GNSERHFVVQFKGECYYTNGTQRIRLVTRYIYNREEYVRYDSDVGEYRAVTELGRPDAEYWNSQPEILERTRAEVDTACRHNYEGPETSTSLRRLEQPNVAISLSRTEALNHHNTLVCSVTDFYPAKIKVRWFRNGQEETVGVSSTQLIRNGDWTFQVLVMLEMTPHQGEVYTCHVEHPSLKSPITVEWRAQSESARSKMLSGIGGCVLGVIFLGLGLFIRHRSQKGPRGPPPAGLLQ
Method: The CH1-IA^d or CH1-IA^b cells were suspended in 2% BSA IMDM to 2×10^6 cells/ml. The cell suspension (100 μl) was added to peptide (100 μl) continuously diluted with serum-free IMDM. After incubating at 37° C. for 2 hr, 6 hr or 16 hr, the cells were washed and stained with FITC-streptavidin. The amount of peptide bound to the cells was measured by flow cytometry.

[5] = tested on: FBL3 erythroleukemia cells; assay: In vivo antitumor activity in FBL3 tumor mice immunized with MHC class I and class II peptide; conditions: CBF1 mouse
Source text: In the immunization experiment using mouse, the mouse was immunized with PbW332bPβ peptide as a Th-inducing peptide, and Db126 peptide as a CTL inducing peptide. As a tumor to be inoculated to the mouse, FBL3 erythroleukemia cell that highly expresses natural WT1 tumor antigen was used. FBL3 is a cell line that was transformed by infection with Friend leukemia virus, and has high possibility of also expressing virus antigen. In fact, when 2×10^7 FBL3 cells were intradermally injected on the back of the mouse, they grew into a solid tumor. However, the tumor had the tendency to shrink naturally after reaching the maximum size. […] Over time, the tumor sometimes started to grow rapidly in a long-term observation.
CBF1 mouse was immunized in advance by subcutaneous injection of 50 nmoles of Db126 peptide alone, or Db126 peptide and 50 nmoles of W332 peptide, to 4 sites in the top, bottom, left and right of the back. A vaccine of 5×10^7 Bordetella pertussis whole cells was added as an adjuvant to all immunization groups including control PBS inoculation group. The mouse was immunized 3 times (once per week) and then 2×10^7 FBL3 cells were subcutaneously injected to the back.

[6] = Degradation of peptide in 10% fresh mouse serum (HPLC of remaining peptide); conditions: mouse, 10% fresh mouse serum
Method: as §1, §2

serum peptidase [7] = assay: as above; conditions: 10% fresh mouse serum, up to 16 hr (FIG. 21)
Method: as §1, §2

HLA-DR molecule = biological target: T3, HLA-DR molecule (Homo sapiens, UniProt P01903+P01911, A100R/A169T/D86S/F76Y/I96L/K127E/L162R/M171V/N62H/P40V/Q125Y/R42H/S133A/S149N/S66Y/V115G/V209L/W38E); assay: Binding of biotinylated W332 peptide to CH1-DR4 cell; conditions: cultured 5 hr, FITC-streptavidin, flow cytometry (FIG. 29A)
T3 construct: expressed in transfected cells; host or cells: CH1-DR4 (CH1-DRB1*04:05) cells

Th cell = assay: In vivo immunization using modified molecule of WA36 (IFN-γ positive Th cells); design: species or system mouse; conditions: IFN-γ positive Th cells (FIG. 27)
[8] = low concentration of pulsed peptide (0.1 μM or less) (FIG. 5)

inhibition of OVII peptide digestion / peptidase activity in serum [1]: almost completely inhibited | inhibition of peptide degrading enzyme activity associated with living cells (ACE): inhibited
Molecule: c1cnc2c(c1)ccc1cccnc12 [o-phenanthrolin]

undigested peptide left (serum peptidase [2]): undigested peptide was not left | metabolised at 2 h (in vitro): 40%
Molecule: ISQAVHAAHAEINEA [OVII]

Molecule: ISQAVHAAHAEINEAGR (peptide inducing Th) [OVAII]
tumor control, Th peptide together with OVA-I (EG7 tumor): enabled better control of the tumor; also recorded: completely disappeared in a part of the mice | expression of CD69 in DO11.10 cells (DO11.10 cells [3]; F2-IA^d cells pulsed with 0.1 μM peptide): induced expression of CD69 in DO11.10 cells to the same level as when OVA-loaded EL4 was incorporated | stimulation of DO11.10 cells by peptide-pulsed endothelial cells (DO11.10 cells [3]; F2-IA^d cells pulsed with peptide (FIG. 2)): could stimulate DO11.10 cells | induction of the expression of CD69 (DO11.10 cells [3]; [8]): induction of the expression of CD69 was hardly confirmed | migration of DO11.10 cells through F2-IA^d cell layer (DO11.10 cells [4]; high concentration of pulsed peptide (FIG. 5)): did not migrate by penetrating the F2-IA^d cell layer | migration of DO11.10 cells through F2-IA^d cell layer (DO11.10 cells [4]; [8]): actively migrated, and penetrated the F2-IA^d cell layer

Molecule: ISQAVHAAHAEINEAR [OVII+]
binding activity to I-A^d molecule, effect of added Arg (I-A^d molecule): did not affect the binding activity to I-A^d molecule

Molecule: KRYFKLSHLQMHSRKH [W332, WT1 antigen-derived polypeptide]
antitumor activity, Th-inducing peptide together with Db126 peptide ([5]; 50 nmoles each peptide s.c. with Wc adjuvant, 3 times, FBL3 tumor (FIG. 29)): stronger antitumor activity than Db126 single peptide immunization | long-term remaining tumor, Th-inducing peptide together with Db126 peptide ([5]; FBL3 tumor, vs Wc alone, Db126 or W332 single immunization): tends to shrink

remaining at 16 h [6]: ~70% | digestion resistance to serum peptidases (in words) (serum peptidase [7]): very strong enzyme resistance
Molecule: PSISQAVHAAHAEINEA [POVII]

binding to cell that expresses HLA-DR molecule (HLA-DR molecule): bind to CH1-DR4 cell
Molecule: PSK^bioKRYFKLSHLQMHSRKHK^bioPβA (PSK(Biotin)KRYFKLSHLQMHSRKHK(Biotin)P[βAla]) [PbW332bPβ]

Molecule: PVLDFAPPGASAYGS [WA36, WT1 antigen-derived polypeptide]
induction of Th cell to the tumor antigen in in vivo immunization (Th cell): induction of Th cell was extremely difficult
